Measured values published in the supplement of paper PMC11451515.

Tests used:
[1] = system: SEM cells; experiment: cell viability relative to DMSO control; higher = less cytotoxic; settings: 48 h
In short: (§1)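 Leukemia cells (NOMO1 or SEM, 500 cells/well; P12-Ichikawa, 1000 cells/well) were seeded in 5 μl in 1536-well plates after at least four passages of adaptation to each medium. They received library compounds in DMSO by pin dosing, 11 threefold points from 47 μM to 0.79 nM. Luminescence with CellTiter-Glo One was read after 48 h at 37°C. Viability is stated per plate relative to DMSO wells, with cell-free wells as background.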

[2] = system: NOMO1; experiment: AUC of viability dose-response curve (% viability x log10 dose units); higher = less sensitive; settings: 48 h
In short: (§2)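 Over 48 h at 37°C, leukemia cells in 1536-well plates (500 or 1000 cells/well), adapted to each medium, received library compounds in DMSO at 11 threefold doses from 47 μM to 0.79 nM. CellTiter-Glo One luminescence, normalised per plate to DMSO and cell-free wells, was fitted by a four-parameter log-logistic function of log10 dose. The area under the curve was then integrated by trapezoidal rule, after scaling curves above full viability and removing those that failed quality control.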

[3] = system: P12-Ichikawa; experiment: as above; settings: 48 h
In short: as §2

[4] = system: SEM cells; experiment: as above; settings: 48 h
In short: as §2

[5] = system: P12-Ichikawa; experiment: cell viability relative to DMSO control; higher = less cytotoxic; settings: HPLM + 10% dialyzed FBS, 48 h
In short: as §1

C[C@@H]1C[C@H]2[C@@H]3\C=C(C)/C4=C/C5=C(C[C@]4(C)[C@H]3[C@@H](O)C[C@]2(C)[C@@]1(O)C(=O)CO)C=N[N]5C6=CC=CC=C6
[1], HPLM + 10% dialyzed FBS
Settings | cell viability [%]
0.000781 µM | 143
0.00234 µM | 123
0.00702 µM | 112
0.0211 µM | 109
0.0632 µM | 101
0.19 µM | 71.2
0.569 µM | 66.9
1.71 µM | 64.9
5.12 µM | 72.3
15.4 µM | 57.7
46.1 µM | 36.4

AUC of viability dose-response curve
Settings | [2] | [3] | [4]
HPLM + 10% dialyzed FBS | 425 | 308 | 296
RPMI 5 mM glucose + 10% FBS | 446 | 280 | 300
RPMI 5 mM glucose + 10% dialyzed FBS | 461 | 246 | 267

CN(Cc1cc(Br)cc(Br)c1N)C1CCCCC1
[1], HPLM + 10% dialyzed FBS
Settings | cell viability [%]
0.000781 µM | 99.1
0.00234 µM | 122
0.00702 µM | 123
0.0211 µM | 130
0.0632 µM | 104
0.19 µM | 133
0.569 µM | 104
1.71 µM | 133
5.12 µM | 121
15.4 µM | 130
46.1 µM | 108

AUC of viability dose-response curve
Settings | [2] | [3] | [4]
HPLM + 10% dialyzed FBS | 444 | 468 | 472
RPMI 5 mM glucose + 10% FBS | 464 | 471 | 461
RPMI 5 mM glucose + 10% dialyzed FBS | 448 | 470 | 441

Nc1cccc2c1C(=O)N(C1CCC(=O)NC1=O)C2=O (stereo unspecified)
[1], RPMI 5 mM glucose + 10% FBS
Settings | cell viability [%]
0.000781 µM | 117
0.00234 µM | 126
0.00702 µM | 103
0.0211 µM | 98
0.0632 µM | 96.9
0.19 µM | 93.9
0.569 µM | 76.6
1.71 µM | 72.5
5.12 µM | 80.2
15.4 µM | 64.1
46.1 µM | 37.7

AUC of viability dose-response curve
Settings | [2] | [3] | [4]
HPLM + 10% dialyzed FBS | 462 | 436 | 462
RPMI 5 mM glucose + 10% FBS | 452 | 448 | 349
RPMI 5 mM glucose + 10% dialyzed FBS | 466 | 450 | 388

NC(=O)c1ccc2[nH]c(-c3ccc(Oc4ccc(Cl)cc4)cc3)nc2c1
[1], HPLM + 10% dialyzed FBS
Settings | cell viability [%]
0.000781 µM | 115
0.00234 µM | 113
0.00702 µM | 136
0.0211 µM | 121
0.0632 µM | 117
0.19 µM | 65.4
0.569 µM | 133
1.71 µM | 124
5.12 µM | 134
15.4 µM | 118
46.1 µM | 91.9

AUC of viability dose-response curve
Settings | [2] | [3] | [4]
HPLM + 10% dialyzed FBS | 457 | 463 | 470
RPMI 5 mM glucose + 10% FBS | 472 | 454 | 446
RPMI 5 mM glucose + 10% dialyzed FBS | 475 | 453 | 463

CC(COc1ccccc1)N(CCCl)Cc1ccccc1 (stereo unspecified)
cell viability [%], [1]
Settings | HPLM + 10% dialyzed FBS | RPMI 5 mM glucose + 10% FBS
0.000781 µM | 89.3 | 101
0.00234 µM | 102 | 123
0.00702 µM | 121 | 127
0.0211 µM | 110 | 120
0.0632 µM | 116 | 112
0.19 µM | 115 | 135
0.569 µM | 104 | 131
1.71 µM | 110 | 128
5.12 µM | 123 | 148
15.4 µM | 119 | 147
46.1 µM | 89.4 | 115

AUC of viability dose-response curve
Settings | [2] | [3] | [4]
HPLM + 10% dialyzed FBS | 304 | 367 | 465
RPMI 5 mM glucose + 10% FBS | 280 | 372 | 451
RPMI 5 mM glucose + 10% dialyzed FBS | 316 | 380 | 469

Clc1ccc(COC(Cn2ccnc2)c2ccc(Cl)cc2Cl)c(Cl)c1 (stereo unspecified)
[1], HPLM + 10% dialyzed FBS
Settings | cell viability [%]
0.000781 µM | 121
0.00234 µM | 120
0.00702 µM | 112
0.0211 µM | 123
0.0632 µM | 104
0.19 µM | 115
0.569 µM | 114
1.71 µM | 124
5.12 µM | 99.3
15.4 µM | 109
46.1 µM | 70

AUC of viability dose-response curve
Settings | [2] | [3] | [4]
HPLM + 10% dialyzed FBS | 425 | 452 | 462
RPMI 5 mM glucose + 10% FBS | 468 | 467 | 460
RPMI 5 mM glucose + 10% dialyzed FBS | 452 | 419 | 449

CC1=CC=C(C=C1)\C2=N\C3=CC=C(Cl)C=C3OC2
AUC of viability dose-response curve
Settings | [2] | [3] | [4]
HPLM + 10% dialyzed FBS | 451 | 439 | 427
RPMI 5 mM glucose + 10% FBS | 439 | 424 | 418
RPMI 5 mM glucose + 10% dialyzed FBS | 457 | 440 | 392

COc1ccccc1N1CCN(CCN(C(=O)C2CCCCC2)c2ccccn2)CC1
cell viability [%], [1]
Settings | HPLM + 10% dialyzed FBS | RPMI 5 mM glucose + 10% FBS
0.000781 µM | 97.9 | 104
0.00234 µM | 121 | 111
0.00702 µM | 122 | 131
0.0211 µM | 112 | 123
0.0632 µM | 122 | 124
0.19 µM | 120 | 135
0.569 µM | 137 | 132
1.71 µM | 133 | 131
5.12 µM | 127 | 130
15.4 µM | 122 | 111
46.1 µM | 122 | 126

AUC of viability dose-response curve
Settings | [2] | [3] | [4]
HPLM + 10% dialyzed FBS | 466 | 470 | 468
RPMI 5 mM glucose + 10% FBS | 469 | 472 | 467
RPMI 5 mM glucose + 10% dialyzed FBS | 468 | 473 | 472

CN(C)/N=N/c1nc[nH]c1C(N)=O
[1], HPLM + 10% dialyzed FBS
Settings | cell viability [%]
0.000781 µM | 121
0.00234 µM | 122
0.00702 µM | 117
0.0211 µM | 126
0.0632 µM | 125
0.19 µM | 120
0.569 µM | 128
1.71 µM | 119
5.12 µM | 123
15.4 µM | 106
46.1 µM | 105

AUC of viability dose-response curve
Settings | [2] | [3] | [4]
HPLM + 10% dialyzed FBS | 416 | 422 | 467
RPMI 5 mM glucose + 10% FBS | 435 | 410 | 462
RPMI 5 mM glucose + 10% dialyzed FBS | 392 | 374 | 307

O=C(O)CC/C=C\CC[C@@H]1[C@@H](N2CCCCC2)[C@@H](O)C[C@@H]1OCc1ccc(-c2ccccc2)cc1
Settings | AUC of viability dose-response curve | cell viability [%]
[2], HPLM + 10% dialyzed FBS | 433 | –
[2], RPMI 5 mM glucose + 10% FBS | 441 | –
[2], RPMI 5 mM glucose + 10% dialyzed FBS | 457 | –
[3], HPLM + 10% dialyzed FBS | 461 | –
[3], RPMI 5 mM glucose + 10% FBS | 457 | –
[3], RPMI 5 mM glucose + 10% dialyzed FBS | 455 | –
[4], HPLM + 10% dialyzed FBS | 461 | –
[4], RPMI 5 mM glucose + 10% FBS | 456 | –
[4], RPMI 5 mM glucose + 10% dialyzed FBS | 467 | –
[5], 0.000781 µM | – | 124
[5], 0.00234 µM | – | 131
[5], 0.00702 µM | – | 125
[5], 0.0211 µM | – | 126
[5], 0.0632 µM | – | 116
[5], 0.19 µM | – | 119
[5], 0.569 µM | – | 131
[5], 1.71 µM | – | 129
[5], 5.12 µM | – | 107
[5], 15.4 µM | – | 108
[5], 46.1 µM | – | 109

[1], HPLM + 10% dialyzed FBS
Settings | cell viability [%]
0.000781 µM | 117
0.00234 µM | 131
0.00702 µM | 117
0.0211 µM | 136
0.0632 µM | 129
0.19 µM | 123
0.569 µM | 127
1.71 µM | 117
5.12 µM | 111
15.4 µM | 114
46.1 µM | 112

CC[S+](=O)([O-])N1CC(CC#N)(n2cc(-c3ncnc4[nH]ccc34)cn2)C1
AUC of viability dose-response curve
Settings | [2] | [3] | [4]
HPLM + 10% dialyzed FBS | 441 | 452 | 449
RPMI 5 mM glucose + 10% FBS | 451 | 454 | 457
RPMI 5 mM glucose + 10% dialyzed FBS | 471 | 443 | 450
